From US12617818B2, “Compositions and methods for modulating myosin subfragment-2 coiled coil stability and methods for using them” (UNIVERSITY OF NORTH TEXAS, priority 2020, dated 2026)

System: rabbit skeletal muscle myofibrils
Assay: Myofibrillar contractility assays (20 μL myofibril drop, 18 mM ATP added)
Format: biochemical
Conditions: for % Contraction of imaged myofibril (FIG. 55, 56): after ATP; for IC50: read-out: IC-50 Value (50 percent of the reduction in percent contractility)
Experimental: Propionic acid, imidazole, and Mg(C2H3O2)2 were purchased from Sigma-Aldrich (St. Louis, MO). Boric Acid and KOH were purchased (EM Industries, Gibbstown, NJ). CaCl2) were purchased from Avantor (Center Valley, PA). We used myofibrils previously extracted and prepared from rabbit skeletal muscle as described by Duong and Reisler (1989). Afterwards, we stored the myofibril suspension with glycerol in a 1:1 ratio at −10° C.
We created a buffer solution with 2.2 mM Mg(C2H3O2)2, 10 mM imidazole, 130 mM propionic acid, 0.1 mM CaCl2) and titrated the solution with 10 M KOH until the pH reached 7. We decided to combine these chemicals and target a pH of 7 in order to simulate regular cell conditions for the myofibrils.
We began by extracting 50 mg of the myofibril suspension and adding 1 mL of our buffer into a 2 mL microcentrifuge tube. Next, we centrifuged the tube three times at 5000 RPM for 5 minutes on an IEC Micromax microcentrifuge, thereby isolating the denser myofibril from the lighter glycerol and unnecessary cellular constituents. After each centrifugation, we disposed of the supernatant and filled the microcentrifuge tube to 1 mL again with our buffer. Furthermore, we used a Fisher Vortex Genie 2™ to dislodge the pellet from the bottom of the microcentrifuge tube, making the next centrifugation effective. Following the series of centrifugations, we stored the myofibrils with the buffer in a 4° C. fridge to maintain their biological function. Every 2 days, we prepared new myofibrils with the method described above because previous batches of myofibril would be subject to rigor mortis: muscle death where myofibrils are indefinitely contracted.
A myofibrillar contractility assay tests the effect of certain chemical compounds on myofibril contraction. The assay involves the interaction of myofibrils with ATP, and we measured sarcomere length before and after the addition of ATP to determine percent contractility of myofibrils.
We created an apparatus for myofibrillar contractility assays by attaching a coverslip to a modified petri dish using electrical tape. Each coverslip used on the apparatus can run three assays total. We placed the apparatus on a ZEISS IM35™ inverted microscope equipped with a CANON POWERSHOT A510™ connected to one of the microscope's ocular lenses. Our apparatus allowed us to precisely adjust the field of view of the microscope, enabling efficient and quality imaging (FIG. 8).
To run an assay, we first placed a 20 μL drop of our prepared myofibrils onto the coverslip. Then, we added chemical modifiers (peptides and antibodies) to each droplet as needed and used a CARL ZEISS PLAN 40/0.65 160/0.17™ objective lens to focus on the myofibrils with the microscope. Since the antibodies have a much larger molecular mass than the peptides, we determined that the antibodies would also require a longer period of time to diffuse throughout the myofibril droplet. We allowed the antibodies a minimum of 5 minutes to diffuse into the myofibril solution while we gave peptide modifiers 30 seconds to settle into the solution.
These myofibrils would be likely to show evidence of contraction when they interacted with the ATP in the assay. We photographed the chosen myofibril before the addition of ATP. Then, we pipetted 2 μL of 18 mM ATP on the myofibril droplet, and we typically observed a visible contraction within 30 seconds. We needed to carefully watch the camera screen when adding the ATP because the addition of ATP solution onto the drop or the motion of the myofibril as it contracted would occasionally displace the myofibril. If the myofibril moved, we adjusted our field of view accordingly so that the myofibril was visible once again.
After the contraction concluded, we re-imaged the myofibril to compare the current sarcomere length with the initial sarcomere length. […]

| EC50 (read-out: EC-50 value (50 percent of the increase in percent contraction)) [µM] | IC50 [µM] | Structure (SMILES) | % Contraction (20 nM) [%] | After (sarcomere length after ATP) (20 nM) [μm] | Before (sarcomere length before ATP) (20 nM) [μm] | % Contraction (40 nM) [%] | After (sarcomere length after ATP) (40 nM) [μm] | Before (sarcomere length before ATP) (40 nM) [μm] | % Contraction of imaged myofibril (FIG. 55, 56) (40 nM) [%] | % Contraction (80 nM) [%] | After (sarcomere length after ATP) (80 nM) [μm] | Before (sarcomere length before ATP) (80 nM) [μm] | % Contraction (200 nM) [%] | After (sarcomere length after ATP) (200 nM) [μm] | Before (sarcomere length before ATP) (200 nM) [μm] | induction of contraction compared to control group (high concentrations) | % Contraction (10 nM) [%] | After (sarcomere length after ATP) (10 nM) [μm] | Before (sarcomere length before ATP) (10 nM) [μm] |
| --- | --- | --- | --- | --- | --- | --- | --- | --- | --- | --- | --- | --- | --- | --- | --- | --- | --- | --- | --- |
| 0.008 ± 0.004 | 0.012 ± 0.006 | CSCC[C@H](NC(=O)[C@H](CCC(=O)O)NC(=O)[C@H](CCCNC(=N)N)NC(=O)[C@H](CCC(=O)O)NC(=O)[C@H](CC(=O)O)NC(=O)[C@H](CCC(=O)O)NC(=O)[C@H](CC(C)C)NC(=O)[C@H](CCCNC(=N)N)NC(=O)[C@H](CCC(=O)O)NC(=O)[C@H](CC(N)=O)NC(=O)[C@H](CCSC)NC(=O)[C@@H](N)CCC(=O)O)C(=O)N[C@@H](CCCCN)C(=O)N[C@@H](C)C(=O)N[C@@H](CCC(=O)O)C(=O)N[C@@H](CC(C)C)C(=O)N[C@H](C(=O)N[C@@H](C)C(=O)N[C@@H](CCCCN)C(=O)O)[C@@H](C)O [Destabilizer] | 21 ± 3 | 1.7 | 2.2 | 25 ± 8 | 1.7 | 2.2 | 30 | 32 ± 4 | 1.5 | 2.3 | 35 ± 7 | 1.5 | 2.3 | more than two-fold |  |  |  |
|  | 0.068 ± 0.027 | C[C@H](NC(=O)[C@H](CCCCN)NC(=O)[C@H](Cc1ccccc1)NC(=O)[C@H](CCCCN)NC(=O)[C@H](CCCCN)NC(=O)[C@H](CCCCN)NC(=O)[C@H](CCCCN)NC(=O)[C@H](CCCCN)NC(=O)[C@H](CCCCN)NC(=O)[C@H](CCCCN)NC(=O)[C@@H](N)CCCCN)C(=O)N[C@@H](CCCCN)C(=O)N[C@@H](CCCCN)C(=O)N[C@@H](CCCCN)C(=O)N[C@@H](CCCCN)C(=O)N[C@@H](CCCCN)C(=O)N[C@@H](CCCCN)C(=O)O [Stabilizer] |  |  |  | 10 ± 1 | 1.9 | 2.2 | 11 | 9 ± 2 | 2.0 | 2.2 | 8 ± 1 | 2.0 | 2.2 |  | 12 ± 2 | 1.9 | 2.1 |
